Source: patent US6673772B2, “Dipeptide compounds and their use as antiviral agents” (Sumitomo Pharmaceuticals Company Limited, priority 2000, dated 2004)

system: HIV virus (HIV-1 IIIB strain); assay: Measurement of anti-HIV activity (cytopathic effect, XTT) in CEM-SS cells; format: cell-based; settings: 6 days, in the presence of 50% human plasma
Method: Measurement of anti-HIV activity
The anti-HIV activity of the compounds synthesized Examples 1-15 and Reference Examples 1-4 was measured according to the method reported by 0. S. Weislow et al. (J. Natl. Cancer Inst. 81, 577-586, 1989) using CEM-SS cells as host cells and HIV virus (HIV-1 IIIB strain)(see T. Mimoto et al., J. Med. Chem., 42, 1789-1802, 1999, etc.).
Specifically, the compounds synthesized Examples 1-15 and […] in various concentrations were added to a culture medium on 96-well microtiter plates. Human blood serum was added to a final concentration of 50%, then HIV infected CEM-SS cells was added, followed by incubation in a CO2 atmosphere at 37° C. for 6 days. The cytopathic effect induced by HIV-1 IIIB was measured by tetrazolium dye XTT dyeing method to evaluate the 50% inhibitory concentration (IC50).

Row | SMILES | Anti-HIV IC50
1 | Cc1ccc(C[C@H](NC(=O)c2cccc(O)c2C)[C@H](O)C(=O)N2CSC(C)(C)[C@H]2C(=O)NCc2ccccc2C)cc1 [Ex. 9, (R)-N-(2-methylbenzyl)-3-[(2S,3S)-2-hydroxy-3-(3-hydroxy-2-methylbenzoyl)amino-4-(4-metylphenyl)butanoyl]-5,5-dimethyl-1,3-thiazolidine-4-carboxamide] | 0.02 µg/mL

biological target: T1, recombinant HIV-1 protease (Human immunodeficiency virus type 1 group M subtype B, UniProt P04585); assay: Measurement of HIV protease inhibitory activity; format: biochemical; settings: 50 nM compound; 10.5 nM HIV-1 protease, pH 6.5, 37° C., 60 minutes
T1 construct: 10.5 nM HIV-1 protease
Method: Measurement of HIV protease inhibitory activity
The protease inhibitory activity was measured according to the method reported by T. Mimoto et al., J. Med. Chem., 42, 1789-1802 (1999) by using a recombinant HIV-1 protease (see Biochemistry, 250, 9, 264 (1990)) and a synthesized peptide substrate (H-Ser-Gln-Asn-Tyr-Pro-Ile-Val-OH). Specifically, reaction solutions (15 μl each) containing any one of the compounds synthesized in the above Examples 1-15 and Reference Examples 1-4, an inhibitor in which a known anti-AIDS agent (nelfinavir) is dissolved in DMSO in different concentrations, 10.5 nM HIV-1 protease, 20 mM synthesized peptide substrate, and 100 mM MES buffer solution (pH 6.5) were incubated at 37° C. for 60 minutes. Peptide fragments produced by cleaving the Tyr-Pro bonds in the synthesized peptide substrate was quantitatively measured by reverse phase HPLC.

Row | SMILES | HIV protease inhibition rate (%) at 50 nM
2 | Cc1ccc(C[C@H](NC(=O)c2cccc(O)c2C)[C@H](O)C(=O)N2CSC(C)(C)[C@H]2C(=O)NCc2ccccc2C)cc1 [Ex. 9, (R)-N-(2-methylbenzyl)-3-[(2S,3S)-2-hydroxy-3-(3-hydroxy-2-methylbenzoyl)amino-4-(4-metylphenyl)butanoyl]-5,5-dimethyl-1,3-thiazolidine-4-carboxamide] | 97%

same assay, conditions: 50 nM compound; 10.5 nM HIV-1 protease, pH 6.5, 37° C., 60 minutes; read-out: HIV protease inhibition rate (%) at 50 nM

Row | SMILES | inhibition at 0.05 µM
3 | COc1ccc(C[C@H](NC(=O)c2cccc(O)c2C)[C@H](O)C(=O)N2CSC(C)(C)[C@H]2C(=O)NCc2ccccc2C)cc1 [Ex. 1, (R)-N-(2-methylbenzyl)-3-[(2S,3S)-2-hydroxy-3-(3-hydroxy-2-methylbenzoyl)amino-4-(4-methoxyphenyl)butanoyl]-5,5-dimethyl-1,3-thiazolidine-4-carboxamide] | 95%
4 | COc1ccc(C[C@H](NC(=O)c2cccc(O)c2C)[C@H](O)C(=O)N2CSC(C)(C)[C@H]2C(=O)NCc2cc(F)ccc2C)cc1 [Ex. 2, (R)-N-(5-fluoro-2-methylbenzyl)-3-[(2S,3S)-2-hydroxy-3-(3-hydroxy-2-methyl-benzoyl)amino-4-(4-methoxyphenyl)butanoyl]-5,5-dimethyl-1,3-thiazolidine-4-carboxamide] | 97%
5 | COc1ccc(C[C@H](NC(=O)c2ccc(F)c(O)c2C)[C@H](O)C(=O)N2CSC(C)(C)[C@H]2C(=O)NCc2ccccc2C)cc1 [Ex. 3, (R)-N-(2-methylbenzyl)-3-[(2S,3S)-2-hydroxy-3-(4-fluoro-3-hydroxy-2-methyl-benzoyl)amino-4-(4-methoxyphenyl)butanoyl]5,5-dimethyl-1,3-thiazolidine-4-carboxamide] | 93%
6 | COc1ccc(C[C@H](NC(=O)c2cccc(N)c2Cl)[C@H](O)C(=O)N2CSC(C)(C)[C@H]2C(=O)NCc2ccccc2C)cc1 [Ex. 4, (R)-N-(2-methylbenzyl)-3-[(2S,3S)-2-hydroxy-3-(3-amino-2-chlorobenzoyl)amino-4-(4-methoxyphenyl)butanoyl]-5,5-dimethyl-1,3-thiazolidine-4-carboxamide] | 91%
7 | CCOc1ccc(C[C@H](NC(=O)c2cccc(O)c2C)[C@H](O)C(=O)N2CSC(C)(C)[C@H]2C(=O)NCc2ccccc2C)cc1 [Ex. 5, (R)-N-(2-methylbenzyl)-3-[(2S,3S)-2-hydroxy-3-(3-hydroxy-2-methylbenzoyl)amino-4-(4-ethoxyphenyl)butanoyl]-5,5-dimethyl-1,3-thiazolidine-4-carboxamide] | 95%
8 | Cc1ccccc1CNC(=O)[C@H]1N(C(=O)[C@@H](O)[C@H](Cc2ccc3c(c2)OCO3)NC(=O)c2cccc(O)c2C)CSC1(C)C [Ex. 6, (R)-N-(2-methylbenzyl)-3-[(2S,3S)-2-hydroxy-3-(3-hydroxy-2-methylbenzoyl)amino-4-(3,4-methylenedioxyphenyl)butanoyl]-5,5-dimethyl-1,3-thiazolidine-4-carboxamide] | 97%
9 | CCCOc1ccc(C[C@H](NC(=O)c2cccc(O)c2C)[C@H](O)C(=O)N2CSC(C)(C)[C@H]2C(=O)NCc2ccccc2C)cc1 [Ex. 7, (R)-N-(2-methylbenzyl)-3-[(2S,3S)-2-hydroxy-3-(3-hydroxy-2-methylbenzoyl)amino-4-(4-n-propoxyphenyl)butanoyl]-5,5-dimethyl-1,3-thiazolidine-4-carboxamide] | 97%
10 | Cc1ccccc1CNC(=O)[C@H]1N(C(=O)[C@@H](O)[C@H](Cc2ccc(OC(C)C)cc2)NC(=O)c2cccc(O)c2C)CSC1(C)C [Ex. 8, (R)-N-(2-methylbenzyl)-3-[(2S,3S)-2-hydroxy-3-(3-hydroxy-2-methylbenzoyl)amino-4-(4-isopropoxyphenyl)butanoyl]-5,5-dimethyl-1,3-thiazolidine-4-carboxamide] | 96%
11 | Cc1ccccc1CNC(=O)[C@H]1N(C(=O)[C@@H](O)[C@H](Cc2ccc(C(C)C)cc2)NC(=O)c2cccc(O)c2C)CSC1(C)C [Ex. 10, (R)-N-(2-methylbenzyl)-3-[(2S,3S)-2-hydroxy-3-(3-hydroxy-2-methylbenzoyl)amino-4-(4-isopropylphenyl)butanoyl]-5,5-dimethyl-1,3-thiazolidine-4-carboxamide] | 96%
12 | Cc1ccccc1CNC(=O)[C@H]1N(C(=O)[C@@H](O)[C@H](Cc2ccc(Cl)cc2)NC(=O)c2cccc(O)c2C)CSC1(C)C [Ex. 11, (R)-N-(2-methylbenzyl)-3-[(2S,3S)-2-hydroxy-3-(3-hydroxy-2-methylbenzoyl)amino-4-(4-chlorophenyl)butanoyl]-5,5-dimethyl-1,3-thiazolidine-4-carboxamide] | 97%
13 | CCOc1ccc(C[C@H](NC(=O)c2cccc(N)c2Cl)[C@H](O)C(=O)N2CSC(C)(C)[C@H]2C(=O)NCc2ccccc2C)cc1 [Ex. 12, (R)-N-(2-methylbenzyl)-3-[(2S,3S)-2-hydroxy-3-(3-amino-2-chlorobenzoyl)amino-4-(4-ethoxyphenyl)butanoyl]-5,5-dimethyl-1,3-thiazolidine-4-carboxamide] | 89%
14 | Cc1ccccc1CNC(=O)[C@H]1N(C(=O)[C@@H](O)[C@H](Cc2ccc3c(c2)OCO3)NC(=O)c2cccc(N)c2Cl)CSC1(C)C [Ex. 13, (R)-N-(2-methylbenzyl)-3-[(2S,3S)-2-hydroxy-3-(3-amino-2-chlorobenzoyl)amino-4-(3,4-methylenedioxyphenyl)butanoyl]-5,5-dimethyl-1,3-thiazolidine-4-carboxamide] | 95%
15 | COc1ccc(C[C@H](NC(=O)c2cccc(N)c2Cl)[C@H](O)C(=O)N2CSC(C)(C)[C@H]2C(=O)NCc2c(C)cccc2C)cc1 [Ex. 14, (R)-N-(2,6-dimethylbenzyl)-3-[(2S,3S)-2-hydroxy-3-(3-amino-2-chlorobenzoyl)amino-4-(4-methoxyphenyl)butanoyl]-5,5-dimethyl-1,3-thiazolidine-4-carboxamide] | 92%
16 | Cc1cccc(C)c1CNC(=O)[C@H]1N(C(=O)[C@@H](O)[C@H](Cc2ccc3c(c2)OCO3)NC(=O)c2cccc(N)c2Cl)CSC1(C)C [Ex. 15, (R)-N-(2,6-dimethylbenzyl)-3-[(2S,3S)-2-hydroxy-3-(3-amino-2-chlorobenzoyl)amino-4-(3,4-methylenedioxyphenyl)butanoyl]-5,5-dimethyl-1,3-thiazolidine-4-carboxamide] | 96%
17 | Cc1c(O)cccc1C(=O)N[C@@H](CSc1ccccc1)[C@H](O)CN1C[C@H]2CCCC[C@H]2C[C@H]1C(=O)NC(C)(C)C [Re. 5, nelfinavir, reference compound] | 93%

system: human plasma; assay: Protein binding to human plasma (ultrafiltration, unbound ratio); format: in vitro ADME; settings: concentration 1 μM; from regression line of FIG. 1; 18 hours at 37° C.
Method: Measurement of protein binding rate […] Freezed human plasma (HFFPP100) was used after thawing. Powder of human alpha 1-acid glycoprotein (supplied by SIGMA Co., hereinafter abbreviated to AAG) was dissolved in a phosphate buffer solution (PBS, pH 7.0) to a concentration of 1 mg/ml. […] Quantitative determination of unbound drug concentration […] All amount of the solution was transferred to Micropartition Devices (Centrifree®, Millipore Co.) and filtered by centrifugation at 1500 ×g for 20 minutes (using TOMY CX-210 high-speed cooling centrifugal machine). 200 μl of the filtrate was directly subjected to HPLC (Type: HITACHI D-7000, column: COSMOSIL (4.6* 250 mm, manufactured by Nacalai Tesque Co., Ltd.). The HPLC analysis was carried out by using a 59:41 (v/v) water-acetonitrile mixture containing 0.1% trifluoroacetic acid (TFA) as a mobile phase and measuring absorbance at 210 nm. The quantitative determination of unbound drug concentration was carried out based on the absolute calibration curve method using a calibration line obtained from the analysis of a standard sample which contains the drug at a known concentration. Analysis of protein binding properties A commonly accepted method (see Y. Odagiri et al., Protein Binding Experimental Method (1991), Hirokawa Publishing Co., Ltd.) was employed for the analysis of protein binding properties. […]

Row | SMILES | ratio of unbound drug (human plasma)
18 | COc1ccc(C[C@H](NC(=O)c2cccc(O)c2C)[C@H](O)C(=O)N2CSC(C)(C)[C@H]2C(=O)NCc2ccccc2C)cc1 [Ex. 1, (R)-N-(2-methylbenzyl)-3-[(2S,3S)-2-hydroxy-3-(3-hydroxy-2-methylbenzoyl)amino-4-(4-methoxyphenyl)butanoyl]-5,5-dimethyl-1,3-thiazolidine-4-carboxamide] | 0.029

system: not listed separately; assay: Plasma concentration after intraduodenal administration to rats; format: in vivo; settings: Sprague-Dawley, other: into the duodenum, rat, 10 mg/kg into the duodenum, 30 minutes after the administration
Method: A pharmacological experiment of the compound of the present invention was carried out using Sprague-Dawley rats (300-400 g). 10 mg/kg of a 50% polyethylene glycol (PEG) solution (1 ml/kg) was administered into the duodenum under anesthesia and blood was collected over time. After the addition of a solvent, the collected blood plasma sample was shaken and centrifuged. The organic layer was concentrated and dissolved in 50% methanol. The sample thus obtained was analyzed by HPLC for the determination of concentration of the compound in plasma. The HPLC analysis was carried out using Capecellpak C18 (4.6×150 mm, Shiseido LTD) as a column and a mixed solvent of 0.1% TFA aqueous solution and acetonitrile as an eluent (see T. Mimoto et al. J. Med. Chem., 42, 1789-1802, 1999).
The compound of the present invention was confirmed to have pharmacological characteristics expected as an in vivo effect of the compound. For instance, when the compound of Example 1 of the present invention is administered to a rat at a dose of 10 mg/kg into the duodenum, the compound is detected in plasma of the rat at a concentration of 0.42 μg/ml 30 minutes after the administration.

Row | SMILES | concentration at 30 min
19 | COc1ccc(C[C@H](NC(=O)c2cccc(O)c2C)[C@H](O)C(=O)N2CSC(C)(C)[C@H]2C(=O)NCc2ccccc2C)cc1 [Ex. 1, (R)-N-(2-methylbenzyl)-3-[(2S,3S)-2-hydroxy-3-(3-hydroxy-2-methylbenzoyl)amino-4-(4-methoxyphenyl)butanoyl]-5,5-dimethyl-1,3-thiazolidine-4-carboxamide] | 420 ng/mL
